Measurements reported in US10028971B2, “Compositions and methods for treating psychiatric disorders” (GOSFORTH CENTRE (HOLDINGS) PTY LTD., priority 2008, dated 2018).
Like-named read-outs stand apart in the source and are kept apart here.

Assays:
[1] = system: patients with substance addiction; assay: Treatment of addictions, clinical observation; assay type: in vivo, human; conditions: for clinical outcome (case): person
From the text: Addiction to amphetamines poses a number of unique challenges.

[2] = system: individual with a history of a head injury; assay: Head injury with acquired ADHD syndrome, clinical case; assay type: in vivo, human; conditions: person
From the text: A person, no history of ADHD in childhood. Involved in a serious motor vehicle accident the with a depressed skull fracture and frontal lobe involvement. Subsequent history consistent with a acquired syndrome of ADHD. Subsequent development of co-morbid diagnoses included in alcohol dependence, pathological gambling and major depression.

[3] = system: individuals with dysthymia; assay: Treatment of dysthymia, clinical observation; assay type: in vivo, human; conditions: person, PTSD, treated ADHD, sodium valproate 100 mg a day
From the text: The inventor has noted in the clinical setting that individuals suffering with symptoms consistent with a diagnosis of dysthymia, experience a significant abatement from their negative and sometimes intrusive thought patterns on commencement of a low dose anti-epileptic drug. The inventor has also noted in the clinic that the beneficial effects that are noted on commencement of this combination can be further enhanced synergistically, by the use of a psycho-stimulant. These individuals may or may not meet the full criteria for a DSM IV diagnosis consistent with ADHD.
A number of individuals with symptoms of dysthymia report that the depression has been present since adolescence, and finally present in the clinic, after an acute major depressive episode. They are able to achieve a partial resolution from the symptoms of depression with appropriate pharmacological and psychological treatment. Unfortunately, their negative thought patterns are more persistent and can be misinterpreted as a failure to adequately respond to antidepressant therapy. In actuality these symptoms predate the acute episode, and it is not surprising therefore that they don't abate following treatment. […] These subsequent outcomes lead to an improvement in general interpersonal functioning, which in itself contributes to psychosocial stability. […]

[4] = system: individuals with sleep disorders; assay: Sleep disorders, clinical observation; assay type: in vivo, human; conditions: person, chronic insomnia, restless legs; sodium valproate added to dexamphetamine 25 mg
adults with ADHD = system: adults with ADHD
Method: In the clinical setting a number of adults with ADHD experienced a combination therapy of stimulant medication (dexamphetamine) in combination with sodium valproate (VPA). The initial dosages used were from 15 to 70 mg/day of dexamphetamine and from 100 to 700 mg/day of VPA (Epilim) (=approximately 2 to 10 mg/kg/day).
The determination of the dose for the dexamphetamine was undertaken in a clinical sensitive open label manner. The dose was titrated upwards dependent on the clinical response and the freedom from side-effects. The dose range was between 15 and 70 mg a day. The frequency of the dosing also varied dependent upon the clinical response. The usual dose interval was between two to four hours. This dosing adjustment took place prior to the commencement of the sodium valproate. The sodium valproate medication was initiated once a day at 50 mg tablet or elixir and titrated upwards dependent on response, but not more than one increase every three days. The dose was given as a once or twice a day regime. During the titration phase, if clinically possible, no other adjustments to the pharmacotherapy were undertaken.

[5] = system: individuals with developmental dyspraxia / poor coordination; assay: Treatment of developmental dyspraxia, clinical observation; assay type: in vivo, human; conditions: person
From the text: Many of the individuals treated at this clinic, with a diagnosis of ADHD and/or pervasive development disorder such Asperger's Syndrome or autism also present with symptoms consistent with a diagnosis of a developmental coordination disorder. They are often described as ‘unco’ (unco-ordinated) by their peers and experience victimization, poor self-esteem and frustration as a consequence of their poor coordination. […] Individuals have described a sense of having more time to coordinate movements and to understand and integrate their own activity appropriately within a team sport such as soccer, which has previously eluded them. Individuals have felt frustration at being able to practise repeatedly an activity or skill only to be unable to put it into practice when required, within the play of a match. It is proposed that individuals were previously unable to process and plan their own coordination but remain aware of the general activity in which they were participating.

[6] = system: individuals with MCI or dementia; assay: Mild cognitive impairment and dementia, clinical cases (Developmental Eye Movement test, Alzheimer's Quick Test); assay type: in vivo, human; conditions: person
From the text: A married person with a history of good cognitive functioning until last 4-5 yrs when noted by both their spouse and themself to becoming increasingly socially withdrawn primarily because of the difficulty in listening without distraction during social interaction, no known childhood or adult history of prior attentional or impulsive disorders. It has been clinically observed by the inventor that individuals treated with low dose antiepileptic were enhanced in their ability to discriminate irrelevant from the relevant sound was enhanced. […] On ceasing the medication there was an initial improvement again over the preceding 3 to 7 days followed by a loss of the therapeutic effects and returned to their pre-medication function. On the ressumption of the 12.5 mg phenytoin there was a return of the improved function. On this second occasion they were more aware of the benefits and also the gradual return of the detrimental clinic effects. During the clinical assessment it was noted that they had more flexibility in their conversation and more natural use of non-verbal cues, there was also enhancement of their egocentric gaze. […] These benefits were also noted by their spouse. […] Again these medications were ceased resulting in a loss of associated benefits. With each trial of medication they became more apparent to the patient and their spouse of the benefits of the therapy. They attempted whilst not taking the medication to communicate and follow the conversation in a way that they had been able to whilst on treatment. They found when attempting to do so they became mentally exhausted and unable to sustain the effort required for the interaction. The improvements noted clinically and also recorded using the Developmental Eye Movement test and a measure of parietal function the Alzheimer's Quick Test. Married person diagnosed with fronto-temporal dementia. they had been assessed by neuropsychologist, and geriatrician and psychiatrist to confirm this diagnosis. […] They then relied on others to make decisions for […]. They had gradually become socially disengaged finding such interactions distressing and demanding. […] Despite ongoing difficulties of word finding they were able to socially interact more spontaneously than they had done for many years. And have confidence in areas of conversation that they previously would have avoided. […] On two occasions the medication was withdrawn and then reintroduced, due to the experimental nature of treatment and concern that there might be a significant placebo effect. […] Following the subsequent reduction there was a return of the improvement previously noted.

CCCC(CCC)C(=O)O.[Na] [sodium valproate, sodium di-n-propylacetic acid]
clinical outcome (case) ([1]; methamphetamine use, 100 mg/d Valproate with 50 mg/d dexamphetamine): robust improvement in attention and concentration abilities | clinical outcome (case) ([1]; sodium valproate 50 mg increased to 200 mg with dexamphetamine): reduced dependence on marijuana and ceased alcohol consumption | clinical outcome ([1]; two patients, ADHD and methamphetamine addiction, Valproate 50 to 100 mg/d with 50 mg/d dexamphetamine): responded well | clinical outcome (case) ([2]; sodium valproate 150 mg added to dexamphetamine 50 mg): Improved social interaction and egocentric eye gaze | clinical outcome (case) ([2]; sodium valproate above 150 mg): loss of benefit | clinical outcome (case) [3]: could read without distraction | clinical outcome on sleep (case) [4]: less effort was required to initiate sleep | clinical outcome (case) (adults with ADHD; adult female, sodium valproate maximum 150 mg added to methylphenidate): Improvement | group outcome of combination therapy (adults with ADHD; adults with ADHD, Methylphenidate 40 mg/d, Valproate 100 mg/d, Phenytoin 50 mg/d): successfully treated | clinical assessment under combination therapy (adults with ADHD; adults with ADHD, Valproate 50-300 mg/d with Dexamphetamine 20-75 mg/d): overall improvement in psychosocial functioning | group outcome of combination therapy (adults with ADHD; adults with ADHD, dexamphetamine 20-45 mg/d, Valproate 100-400 mg/d, Phenytoin 12.5-50 mg/d): successfully treated | group outcome of combination therapy (adults with ADHD; adults with ADHD, median 40 mg/d Dexamphetamine, 120 mg/d Sodium Valproate, 25 mg/d Topiramate): successfully treated | group outcome of combination therapy (adults with ADHD; adults with ADHD, methylphenidate 30-125 mg/d with Valproate 50-200 mg/d): successfully treated | effect of higher doses (adults with ADHD; human, in vivo): general cognitive slowing and the resultant loss of efficacy | clinical outcome (case) (adults with ADHD; person, ADHD, anorexia nervosa, borderline personality disorder, sodium valproate 200 mg with dexamphetamine): responded | clinical outcome (case) (adults with ADHD; person, ADHD, low dose sodium valproate 50 mg added to psycho stimulant): improvement in their egocentric gaze and improved cognition | clinical outcome (case) (adults with ADHD; person, ADHD, sodium valproate 100 mg a day added to dexamphetamine 40 mg): improvement with more organised thoughts | self-described improvement in ability to study (adults with ADHD; person, ADHD, sodium valproate (50 mg) added to psycho stimulant): 50% | clinical outcome (case) (adults with ADHD; person, 100 mg sodium valproate added to methylphenidate 55 mg): enhanced ability to maintain conversation, improved cognition, improved assertiveness and self organisation | clinical outcome (case) (adults with ADHD; person, sodium valproate (up to 500 mg a day) added to dexamphetamine 20 mg): Further benefit | clinical outcome (case) (adults with ADHD; person, sodium valproate maximum 400 mg added to dexamphetamine): good effect | clinical outcome (case) (adults with ADHD; person, valproate dose reached 150 mg, with psycho stimulant): benefits were lost | clinical outcome (case) ([5]; ADHD, dexamphetamine 25 mg daily augmented with atomexetine 60 mg and sodium valproate 150 mg): Significant improvement in psychosocial functioning | clinical outcome (case) ([5]; Sodium valproate 50 mg increased to 100 mg with stimulant): improved coordination, improved school attendance, improved cognition and report grades | clinical outcome (case) ([6]; sodium valproate 40 mg): enhanced ability to follow the train of conversation | clinical outcome (case) ([6]; sodium valproate 80 mg): loss of these benefits
